Laboratory results published in paper PMC8011931, “Identification, Structure–Activity Relationship, and Biological Characterization of 2,3,4,5-Tetrahydro-1H-pyrido[4,3-b]indoles as a Novel Class of CFTR Potentiators” (Journal of Medicinal Chemistry, 2020).

Molecular target: F508del-CFTR (Homo sapiens, UniProt P13569, DEL508-508)
Test: HS-YFP-based assay for CFTR activity on F508del-CFTR FRT cells rescued at 32 °C for 24 h
Format: cell-based
Set-up: expressed in transfected cells; key to Emax: fold increase in F508del-CFTR rescue relative to hit 3 (normalized)
Conditions: for EC50: F508del-CFTR FRT cells rescued at 32 °C for 24 h, plus forskolin; for EC50 / Emax (FRT F508del-CFTR): mean ± SD (n = 3–6), n.a.: not active (up to 20 μM); for Emax: supplementary csv, same data as Tables 1–3; for Emax (FRT F508del-CFTR): normalized for the activity of analogue 3
Description: The chemical library was screened in duplicate on a Fischer rat thyroid (FRT) cell line, stably coexpressing F508del-CFTR and the halide-sensitive yellow fluorescent protein, HS-YFP.[23],[34],[35] To overcome the F508del trafficking defect, cells were initially incubated for 24 h at 32 °C and then acutely treated (15–30 min) with a single compound (5 μM) in combination with forskolin (10 μM). After stimulation, the F508del-CFTR activity in the plasma membrane was calculated by measuring the rate of fluorescence quenching arising from iodide influx.[34] This activity was compared to that of wells containing forskolin alone (negative control) or forskolin plus VX-770 (1 μM, as a positive control) (Figure 2A). Analysis of screening performance with the Z′ method gave a score of 0.6, which can be considered optimal for this type of assay. The activity scores for each compound were then plotted as an ordered distribution (Figure 2B). All compounds whose average activity calculated from the two rounds of screening was greater than 185% with respect to the negative control (i.e., forskolin alone) were considered as primary hits.
The primary hits were confirmed by testing them at different concentrations, in order to extrapolate the dose–response relationship. First, we focused on the F508del mutant. The compounds were tested in the low micromolar range, in the presence of forskolin (10 μM), on F508del-CFTR FRT cells following rescue of the trafficking defect by low-temperature incubation, as done for the primary screening. The most interesting hits were subsequently tested for their ability to overcome the more severe gating defect of pure class III mutant using FRT cells stably expressing G551D-CFTR (Figure 3B).
The role of the heteroaryl group (A) acylating the position 2 of the tetrahydro-γ-carboline was initially explored by modifying the substituent on the pyrazolyl residue and replacing the pyrazole with other rings, while keeping the 8-methoxy carboline moiety unmodified. The activity of each compound is described in terms of normalized maximal efficacy (Emax), the maximum fold increase in the rescue of F508del-CFTR activity with respect to hit 3, and potency (EC50), the concentration producing half-maximal efficacy.
FRT cells stably expressing mutant F508del-CFTR or G551D-CFTR and the halide-sensitive yellow fluorescent protein (HS-YFP) YFP-H148Q/I152L and CFBE41o-cells stably expressing F508del-CFTR and HS-YFP were generated as previously described.[21],[57] FRT cells were cultured using the Coon’s modification of Ham’s F12 medium, while CFBE41o-cells were cultured in the modified Eagle’s medium. Media were supplemented with 10% fetal calf serum, 2 mM L-glutamine, 100 U/mL of penicillin, and […] of streptomycin. For functional assays of CFTR activity based on the HS-YFP assays, CFBE41o- or FRT cells were plated (50,000 cells/well) on clear-bottom 96-well black microplates (Corning Life Sciences, Acton, MA). The following day, cells were assayed. In the case of FRT cells expressing F508del-CFTR, plates were kept at 32 °C (or treated with correctors at 37 °C where indicated) for an additional 24 h to rescue the mutant trafficking defect, before assays.
Prior assay, cells were washed with phosphate-buffered saline (PBS) containing (in mM) 137 NaCl, 2.7 KCl, 8.1 Na2HPO4, 1.5 KH2PO4, 1 CaCl2, and 0.5 MgCl2. Cells were then incubated for 25 min with 60 μL of PBS plus forskolin (20 μM) and test compounds (at the desired concentration) to stimulate mutant CFTR. Cells were then transferred to microplate readers (FluoStar Optima; BMG Labtech, Offenburg, Germany) for CFTR activity determination. The plate readers were equipped with high-quality excitation (HQ500/20X: 500 ± 10 nm) and emission (HQ535/30M: 535 ± 15 nm) filters for YFP (Chroma Technology). […]

F508del-CFTR, sequence (P13569 with tags, fused parts or gaps DEL508-508): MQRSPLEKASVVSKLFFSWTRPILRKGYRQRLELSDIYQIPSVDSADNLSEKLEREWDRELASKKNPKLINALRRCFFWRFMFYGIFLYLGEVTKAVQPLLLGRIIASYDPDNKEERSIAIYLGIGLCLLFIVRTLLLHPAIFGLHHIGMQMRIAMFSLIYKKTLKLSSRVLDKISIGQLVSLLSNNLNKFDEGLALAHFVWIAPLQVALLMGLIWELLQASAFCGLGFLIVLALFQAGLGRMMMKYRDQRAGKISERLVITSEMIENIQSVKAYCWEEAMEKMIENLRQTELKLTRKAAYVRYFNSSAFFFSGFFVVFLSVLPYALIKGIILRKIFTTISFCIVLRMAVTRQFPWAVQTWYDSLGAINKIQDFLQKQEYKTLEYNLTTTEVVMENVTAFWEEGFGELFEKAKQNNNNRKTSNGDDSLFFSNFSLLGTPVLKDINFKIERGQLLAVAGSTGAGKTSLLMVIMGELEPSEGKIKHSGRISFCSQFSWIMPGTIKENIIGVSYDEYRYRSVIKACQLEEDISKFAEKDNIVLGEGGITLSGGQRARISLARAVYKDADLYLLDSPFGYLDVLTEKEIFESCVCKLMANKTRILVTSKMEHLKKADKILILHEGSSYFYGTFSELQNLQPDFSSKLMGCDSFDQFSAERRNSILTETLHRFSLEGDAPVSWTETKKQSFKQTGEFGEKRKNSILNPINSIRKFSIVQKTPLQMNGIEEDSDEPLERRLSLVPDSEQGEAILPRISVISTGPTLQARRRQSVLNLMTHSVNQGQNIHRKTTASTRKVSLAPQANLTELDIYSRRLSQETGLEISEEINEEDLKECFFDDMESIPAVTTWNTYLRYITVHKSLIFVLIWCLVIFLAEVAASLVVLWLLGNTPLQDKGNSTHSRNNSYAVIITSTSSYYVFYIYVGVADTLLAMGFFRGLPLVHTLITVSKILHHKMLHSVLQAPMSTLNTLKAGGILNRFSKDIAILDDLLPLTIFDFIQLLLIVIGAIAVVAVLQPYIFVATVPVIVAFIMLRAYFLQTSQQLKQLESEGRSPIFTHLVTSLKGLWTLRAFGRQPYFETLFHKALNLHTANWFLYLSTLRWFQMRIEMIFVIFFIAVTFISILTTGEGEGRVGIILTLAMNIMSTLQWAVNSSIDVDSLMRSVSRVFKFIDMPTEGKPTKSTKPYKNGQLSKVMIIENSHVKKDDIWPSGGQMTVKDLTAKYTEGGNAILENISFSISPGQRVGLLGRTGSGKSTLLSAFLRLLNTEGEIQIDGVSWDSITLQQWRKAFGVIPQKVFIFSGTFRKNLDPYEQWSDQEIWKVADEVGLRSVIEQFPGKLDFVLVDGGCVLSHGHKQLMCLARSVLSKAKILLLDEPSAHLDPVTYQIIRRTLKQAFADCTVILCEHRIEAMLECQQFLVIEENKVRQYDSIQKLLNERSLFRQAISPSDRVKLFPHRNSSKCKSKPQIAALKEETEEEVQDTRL

| fold drop in potency with respect to 20 (EC50, F508del-CFTR FRT cells) | EC50 | Emax | Emax (FRT F508del-CFTR) | Structure (SMILES) | activity on F508del-CFTR FRT cells (in words) |
| --- | --- | --- | --- | --- | --- |
| 6 fold | 0.57 ± 0.14 µM | 0.94 ± 0.13 |  | O=C(c1cc(C(F)(F)F)[nH]n1)N1CCc2[nH]c3c(F)cc(C(F)(F)F)cc3c2C1 [Compound 28, (6-Fluoro-8-trifluoromethyl-1,3,4,5-tetrahydro-2H-pyrido[4,3-b]indol-2-yl)-(5-(trifluoromethyl)-1H-pyrazol-3-yl)methanone] |  |
|  | 0.16 ± 0.03 µM | 0.89 ± 0.03 | 0.89 ± 0.03 | O=C(c1cc(C(F)(F)F)[nH]n1)N1CCc2[nH]c3ccc(OC(F)(F)F)cc3c2C1 [Compound 22, (8-(Trifluoromethoxy)-1,3,4,5-tetrahydro-2H-pyrido[4,3-b]indol-2-yl)-(5-(trifluoromethyl)-1H-pyrazol-3-yl)methanone] |  |
|  | 1.9 ± 0.2 µM | 0.75 ± 0.11 |  | N#Cc1ccc2[nH]c3c(c2c1)CN(C(=O)c1cc(C(F)(F)F)[nH]n1)CC3 [Compound 23, 2-(5-(Trifluoromethyl)-1H-pyrazole-3-carbonyl)-2,3,4,5-tetrahydro-1H-pyrido[4,3-b]indole-8-carbonitrile] |  |
|  | 2.8 ± 0.8 µM | 0.59 ± 0.14 |  | COc1ccc2[nH]c3c(c2c1)CN(C(=O)c1c[nH]c(C(F)(F)F)n1)CC3 [Compound 8, (8-Methoxy-1,3,4,5-tetrahydro-2H-pyrido[4,3-b]indol-2-yl)-(2-(trifluoromethyl)-1H-imidazol-4-yl)methanone] |  |
|  | 0.15 ± 0.02 µM | 0.91 ± 0.12 | 0.91 ± 0.12 | COc1ccc2[nH]c3c(c2c1)CN(C(=O)c1cc2ccc(N(C)C)cc2[nH]1)CC3 [Compound 10, (8-Methoxy-1,3,4,5-tetrahydro-2H-pyrido[4,3-b]indol-2-yl)-(6-(dimethylamino)-1H-indol-2-yl)methanone] |  |
|  | 7.1 ± 1.6 µM | 1.20 ± 0.08 | 1.20 ± 0.08 | COc1ccc2[nH]c3c(c2c1)CN(C(=O)c1cc(C(F)(F)F)n(C)n1)CC3 [Compound 11, (8-Methoxy-1,3,4,5-tetrahydro-2H-pyrido[4,3-b]indol-2-yl)-(1-methyl-5-(trifluoromethyl)-1H-pyrazol-3-yl)methanone] |  |
|  | 3.7 ± 1.1 µM | 0.94 ± 0.11 |  | COc1ccc2[nH]c3c(c2c1)CN(C(=O)c1ccc(Br)o1)CC3 [Compound 9, (8-Methoxy-1,3,4,5-tetrahydro-2H-pyrido[4,3-b]indol-2-yl)-(5-bromofuran-2-yl)methanone] |  |
|  | 0.05 ± 0.01 µM | 0.9 ± 0.3 |  | Cc1ccc(F)c2[nH]c3c(c12)C(C)N(C(=O)c1cc(C(F)(F)F)[nH]n1)CC3 (single isomer, unassigned) [Compound 42, (S)- or (R)-(6-Fluoro-1,9-dimethyl-1,3,4,5-tetrahydro-2H-pyrido[4,3-b]indol-2-yl)-(5-(trifluoromethyl)-1H-pyrazol-3-yl)methanone] |  |
|  |  |  |  | Cc1ccc(F)c2[nH]c3c(c12)[C@H]1CC[C@@H](C3)N1C(=O)c1cc(C(F)(F)F)[nH]n1 (single isomer, unassigned) [Compound 36, (R)- or (S)-(4-Fluoro-1-methyl-5,6,7,8,9,10-hexahydro-7,10-epiminocyclohepta[b]indol-11-yl)(5-(trifluoromethyl)-1H-pyrazol-3-yl)methanone] | completely inactive |
|  | 4.1 ± 1.3 µM | 0.79 ± 0.13 |  | O=C(c1cnn(-c2ccccc2)c1)N1CCc2[nH]c3ccccc3c2C1 [Compound 2, (1-Phenyl-1H-pyrazol-4-yl)-(1,3,4,5-tetrahydro-2H-pyrido[4,3-b]indol-2-yl)methanone] |  |

| Structure (SMILES) | fold drop in potency with respect to 20 (EC50, F508del-CFTR FRT cells) | EC50 | Emax | Emax (FRT F508del-CFTR) | activity on F508del-CFTR FRT cells (in words) |
| --- | --- | --- | --- | --- | --- |
| Cc1ccc(F)c2[nH]c3c(c12)C1CCC(C3)N1C(=O)c1cc(C(F)(F)F)[nH]n1 (single isomer, unassigned) [Compound 37, (S)- or (R)-(4-Fluoro-1-methyl-5,6,7,8,9,10-hexahydro-7,10-epiminocyclohepta[b]indol-11-yl)(5-(trifluoromethyl)-1H-pyrazol-3-yl)methanone] |  | 0.54 ± 0.04 µM | 0.95 ± 0.01 |  | retained some activity |
